# Results from patent publication US20070014718A1, “Kits for gastric emptying measurement” (Atomic Energy Council - Institute of Nuclear Energy Research, priority 2005, published 2007).
# Where two headings read alike, the source gives them in different places.
# Legend:
# [1] = In-vitro gastric simulation: isotope tracer retention in solid phase of test meal; type: in vitro ADME; conditions: mimic gastric fluid
# Protocol: After chewing the test meal, it is put into a semi-permeable membrane (Spectra/PorMembrane MWCO 3,500, 54 mm×150 mm) incubated and shook with a simulated gastric juice (2 g (gram) of sodium chloride; 3.2 g of pepsin; and, 7 mL of HCl in 1000 mL, pH 1.2) at 37±2° C. having different time intervals. 5 mL aliquot of the liquid phase were removed at regular 60 min intervals, centrifuged and aliquots of the supernatants removed for C-13 glycine quantification with Liquid Chromatography/Mass Spectrometry.
# To assess the extent of Tc-99 m phytate retention in the solid phase of the test meal, a simulated gastric digest is made. A muffin is prepared as described above with 1 mCi of a Tc-99 m phytate, which is equivalent to 156.25 μg (microgram) with a specific activity of 10.06 mCi/μmol (μmol, micromolar) mixed with the dry mix 1 and water. […] 5 mL aliquot of the liquid phase were removed at regular 60 min intervals, centrifuged and aliquots of the supernatants removed for liquid scintillation counting Results are then expressed as a percentage, P %, of the initial amount of a radioactivity added. […]
# [2] = Shelf-life / chemical stability on storage; type: physicochemical; conditions: stored at a room temperature
# Excerpt: Please refer to FIG. 1 and FIG. 2, which are views showing a kit for a gastric emptying measurement and isotope tracer retention in a solid phase of a test meal, according to the present invention, where isotope tracer retention percentage is obtained in FIG. 2 in vitro gastric digest at pH 2.3 to imitate the gastric condition after administering the test meal. […] A standardized recipe is provided to clinicians in the test meal, which has fixed proportions of carbohydrate, protein, and fat. The raw ingredients in the test meal include a lyophilized egg flour. The characteristic is that the isotope tracer 2 is coagulated with albumin of the egg flour into a solid form at more than 75° C., which means the isotope tracer is well incorporated into a food product. More than 90% of the isotope tracer is retained in a mimic gastric fluid at 35˜39° C. for three hours. […] More than 98% of the Tc-99 m phytate is retained in a mimic gastric fluid at 35˜39° C. for 4 hours. More than 90% of the Tc-99 m DTPA is retained in a mimic gastric fluid at 35˜39° C. for 3 hours The dry mix 1 comprises egg powder (7.4%), all purpose flour (19.6%), glutinous rice powder (3.9%), whole milk powder (35.7%), levulose (fructose) flour (8%), foaming powder (3%), cream powder (22%), cream fragrance powder (0.2%), and salt (0.2%), having a most preferred calorie of about 289.5±12.5 kcal. […]
# [3] = for % ^13C (dose/hr): breath, patient X, 50 mg
# Protocol: The test meal is administered after an overnight fast along with 100 mL of water within 10 minutes. The first one of the breath samples is collected before the test meal is administered so that a baseline is obtained. And the rest of the breath samples are collected with an 15-minute intervals during 4 hours after the test meal is administered. A measurement can be conveniently done using an isotope ratio mass spectrometer. The results obtained are then expressed in a δ^13C value (^13C/^12C). […] The ^13CO2 excretion parameters are derived from the chi-square distribution in statistics and the equation is expressed as follows. CD=m(1−e^−kt)^β , where CD is the cumulative percentage of the administered dose; t is the time; and, m is the total cumulative percentage of the dose recovered.
# A non-linear regression analysis is performed on the originally measured data to obtain values of the m, k, and β for each individual breath test.
# The half emptying time is calculated by making CD equal to m/2 in the CD equation: [formula] B. Lag Phase:
# The lag phase for the breath test has been defined, which is expressed as follows: tlag=1/k ln β
# The % ^13C dose/hr is calculated by the following equation Eq. 1: [formula] • The definition of mmol ^13C excess in breath (a) and mmol ^13C excess administered (b) were shown below: [formula] • 0.0112372 is the ratio of ^13C/^12C of PDB • % ^13Ct and % ^13Ct0: the concentration of ^13C at time t and t0 (i.e. time zero) • δt=δ^13C value at time t (% ^13Ct−% ^13Ct0) is also called “^13C atom percent excess” [formula] • % ^13Csubstr.=% ^13C present in substrate • M=molar mass of substrate • m=amount of substrate • n=number of atoms, ^13C-labelled • (13) The % ^13C cumulative dose is derived numerically from the % ^13C dose/hr data and is calculated from the following Eq. 2, which informs about the global process. [formula] • n=number of samples per hour • n=4, if a breath sample is taken every 15 minutes • ti=time i
# • (14) Mathematically analyzing the ^13CO2 excretion curves with a Sigma plot software. […] All of these parameters were determined by a non-linear regression analysis. The half emptying time is calculated by making CD equal to m/2 in the CD equation and being defined by [formula] • . […] The lag phase for the breath test is expressed as tlag=1/k ln β (Eq. 4).
structure (smiles),measurement,setting,value
"O=C([O-])CN(CCN(CC(=O)[O-])CC(=O)[O-])CCN(CC(=O)[O-])CC(=O)[O-].[99Tc+4] [Tc-99 m DTPA, Tc-99 m DTPA (diethyl-triamine-pentaacetic acid)]",isotope tracer retained (incorporated) in the test meal,"[1]; 35˜39° C. (37±2° C.), 4 hours",more than 87%
same,isotope tracer retained in the test meal,"[1]; 35˜39° C., 3 hours",More than 90%
NC[13C](=O)O [^13C glycine],shelf-life,[2],more than 5 year
same,% ^13C (dose/hr),[3]; sampling time 15 min,1.104 % ^13C dose/hr
same,% ^13C (dose/hr),[3]; sampling time 30 min,2.802 % ^13C dose/hr
same,% ^13C (dose/hr),[3]; sampling time 45 min,3.905 % ^13C dose/hr
same,% ^13C (dose/hr),[3]; sampling time 60 min,4.754 % ^13C dose/hr
same,% ^13C (dose/hr),[3]; sampling time 75 min,5.603 % ^13C dose/hr
same,% ^13C (dose/hr),[3]; sampling time 90 min,5.093 % ^13C dose/hr
same,% ^13C (dose/hr),[3]; sampling time 105 min,5.857 % ^13C dose/hr
same,% ^13C (dose/hr),[3]; sampling time 120 min,6.027 % ^13C dose/hr
same,% ^13C (dose/hr),[3]; sampling time 135 min,6.706 % ^13C dose/hr
same,% ^13C (dose/hr),[3]; sampling time 150 min,5.857 % ^13C dose/hr
same,% ^13C (dose/hr),[3]; sampling time 165 min,5.263 % ^13C dose/hr
same,% ^13C (dose/hr),[3]; sampling time 180 min,4.414 % ^13C dose/hr
same,% ^13C (dose/hr),[3]; sampling time 195 min,3.65 % ^13C dose/hr
same,% ^13C (dose/hr),[3]; sampling time 210 min,3.65 % ^13C dose/hr
same,% ^13C (dose/hr),[3]; sampling time 225 min,3.056 % ^13C dose/hr
same,% ^13C (dose/hr),[3]; sampling time 240 min,2.547 % ^13C dose/hr
same,k,"[3]; human, in vivo",0.0101
same,m (total cumulative percentage of the dose recovered),"[3]; human, in vivo",22.844
same,β,"[3]; human, in vivo",2.8256
